Experimental data from PubChem BioAssay (NCI).
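Cells were grown in 96-well plates and exposed to each compound for 48 hours at five concentrations; endpoints were interpolated linearly between bracketing concentrations, or set to the highest concentration if not reached. GI50 = concentration required for 50% inhibition of growth. The concentration for full growth arrest is given as TGI.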

What was measured:
Assay in all cases: NCI tumour cell line growth inhibition, 48 h; in the data active means GI50 below about 0.43 µM; inactive means the rest
786-0 renal = tested on: 786-0 renal
A498 renal = tested on: A498 renal
A549 NSCLC = tested on: A549 NSCLC
ACHN renal = tested on: ACHN renal
BT-549 breast = tested on: BT-549 breast
CCRF-CEM leukemia = tested on: CCRF-CEM leukemia
DU-145 prostate = tested on: DU-145 prostate
EKVX NSCLC = tested on: EKVX NSCLC
HCC-2998 colon = tested on: HCC-2998 colon
HCT-116 colon = tested on: HCT-116 colon
HCT-15 colon = tested on: HCT-15 colon
HL-60(TB) leukemia = tested on: HL-60(TB) leukemia
HOP-62 NSCLC = tested on: HOP-62 NSCLC
HOP-92 NSCLC = tested on: HOP-92 NSCLC
HS 578T breast = tested on: HS 578T breast
HT29 colon = tested on: HT29 colon
IGROV1 ovarian = tested on: IGROV1 ovarian
KM12 colon = tested on: KM12 colon
LOX IMVI melanoma = tested on: LOX IMVI melanoma
M14 melanoma = tested on: M14 melanoma
MALME-3M melanoma = tested on: MALME-3M melanoma
MCF7 breast = tested on: MCF7 breast
MDA-MB-231 breast = tested on: MDA-MB-231 breast
MOLT-4 leukemia = tested on: MOLT-4 leukemia
NCI-H226 lung = tested on: NCI-H226 lung
NCI-H23 lung = tested on: NCI-H23 lung
NCI-H460 lung = tested on: NCI-H460 lung
NCI-H522 lung = tested on: NCI-H522 lung
NCI/ADR-RES ovarian = tested on: NCI/ADR-RES ovarian
OVCAR-3 ovarian = tested on: OVCAR-3 ovarian
OVCAR-4 ovarian = tested on: OVCAR-4 ovarian
OVCAR-5 ovarian = tested on: OVCAR-5 ovarian
OVCAR-8 ovarian = tested on: OVCAR-8 ovarian
PC-3 prostate = tested on: PC-3 prostate
RXF 393 renal = tested on: RXF 393 renal
SF-539 CNS = tested on: SF-539 CNS
SK-MEL-2 melanoma = tested on: SK-MEL-2 melanoma
SK-MEL-28 melanoma = tested on: SK-MEL-28 melanoma
SK-MEL-5 melanoma = tested on: SK-MEL-5 melanoma
SK-OV-3 ovarian = tested on: SK-OV-3 ovarian
SN12C renal = tested on: SN12C renal
SNB-19 CNS = tested on: SNB-19 CNS
SNB-75 CNS = tested on: SNB-75 CNS
SW-620 colon = tested on: SW-620 colon
T-47D breast = tested on: T-47D breast
TK-10 renal = tested on: TK-10 renal
U251 CNS = tested on: U251 CNS
UACC-257 melanoma = tested on: UACC-257 melanoma
UACC-62 melanoma = tested on: UACC-62 melanoma
UO-31 renal = tested on: UO-31 renal
CAKI-1 renal = tested on: CAKI-1 renal
K-562 leukemia = tested on: K-562 leukemia
MDA-MB-435 = tested on: MDA-MB-435

COc1cc(-c2nn(-c3ccc(NC(=O)NCCCNC(=O)c4ccccc4)cc3)cc2-c2ccncc2)ccc1Cl
5.3 µM: TGI (ACHN renal)
1.43 µM: TGI (SK-MEL-5 melanoma)
77.6 µM: TGI (A549 NSCLC)
0.843 µM: TGI (SF-539 CNS)
12.7 µM: TGI (OVCAR-8 ovarian)
8.1 µM: TGI (HOP-92 NSCLC)
3.1 µM: TGI (NCI-H522 lung)
5.51 µM: TGI (HCT-116 colon)
2.88 µM: TGI (MALME-3M melanoma)
14 µM: TGI (T-47D breast)
2.86 µM: TGI (786-0 renal)
8.01 µM: TGI (TK-10 renal)
5.22 µM: TGI (SK-MEL-2 melanoma)
inactive: GI50 (786-0 renal) 0.493 µM | GI50 (A498 renal) 0.467 µM | GI50 (A549 NSCLC) 3.23 µM | GI50 (ACHN renal) 1.64 µM | GI50 (BT-549 breast) 0.887 µM | GI50 (EKVX NSCLC) 1.29 µM | GI50 (HCC-2998 colon) 1.21 µM | GI50 (HCT-15 colon) 1.94 µM | GI50 (HOP-62 NSCLC) 0.46 µM | GI50 (HOP-92 NSCLC) 1.26 µM | GI50 (HS 578T breast) 0.428 µM | GI50 (IGROV1 ovarian) 0.843 µM | GI50 (LOX IMVI melanoma) 0.597 µM | GI50 (MALME-3M melanoma) 0.457 µM | GI50 (MDA-MB-231 breast) 1.14 µM | GI50 (MOLT-4 leukemia) 0.905 µM | GI50 (NCI-H226 lung) 1.47 µM | GI50 (NCI-H23 lung) 0.665 µM | GI50 (NCI/ADR-RES ovarian) 3.78 µM | GI50 (OVCAR-4 ovarian) 1 µM | GI50 (OVCAR-5 ovarian) 1.1 µM | GI50 (OVCAR-8 ovarian) 0.635 µM | GI50 (PC-3 prostate) 0.436 µM | GI50 (SK-MEL-2 melanoma) 0.637 µM | GI50 (SK-MEL-28 melanoma) 1.34 µM | GI50 (SK-OV-3 ovarian) 0.752 µM | GI50 (SN12C renal) 0.718 µM | GI50 (SNB-19 CNS) 0.846 µM | GI50 (SNB-75 CNS) 1.12 µM | GI50 (SW-620 colon) 0.455 µM | GI50 (T-47D breast) 0.611 µM | GI50 (TK-10 renal) 2.3 µM | GI50 (U251 CNS) 0.561 µM | GI50 (UACC-257 melanoma) 2.37 µM | GI50 (UACC-62 melanoma) 0.543 µM | GI50 (UO-31 renal) 1.56 µM
1.2 µM: TGI (HL-60(TB) leukemia)
> 100 µM: TGI (CCRF-CEM leukemia) | TGI (DU-145 prostate) | TGI (EKVX NSCLC) | TGI (HCT-15 colon) | TGI (HOP-62 NSCLC) | TGI (HS 578T breast) | TGI (IGROV1 ovarian) | TGI (MCF7 breast) | TGI (MDA-MB-231 breast) | TGI (MOLT-4 leukemia) | TGI (NCI-H226 lung) | TGI (NCI-H23 lung) | TGI (NCI/ADR-RES ovarian) | TGI (OVCAR-4 ovarian) | TGI (OVCAR-5 ovarian) | TGI (PC-3 prostate) | TGI (SK-MEL-28 melanoma) | TGI (SK-OV-3 ovarian) | TGI (SN12C renal) | TGI (SNB-19 CNS) | TGI (SNB-75 CNS) | TGI (SW-620 colon)
21.9 µM: TGI (U251 CNS)
5.15 µM: TGI (A498 renal)
5.33 µM: TGI (BT-549 breast)
9.59 µM: TGI (NCI-H460 lung)
2 µM: TGI (KM12 colon)
active: GI50 (CCRF-CEM leukemia) 0.385 µM | GI50 (DU-145 prostate) 0.385 µM | GI50 (HCT-116 colon) 0.361 µM | GI50 (HL-60(TB) leukemia) 0.358 µM | GI50 (HT29 colon) 0.378 µM | GI50 (KM12 colon) 0.39 µM | GI50 (M14 melanoma) 0.311 µM | GI50 (MCF7 breast) 0.338 µM | GI50 (NCI-H460 lung) 0.404 µM | GI50 (NCI-H522 lung) 0.231 µM | GI50 (OVCAR-3 ovarian) 0.252 µM | GI50 (RXF 393 renal) 0.293 µM | GI50 (SF-539 CNS) 0.266 µM | GI50 (SK-MEL-5 melanoma) 0.362 µM
8.81 µM: TGI (HCC-2998 colon)
0.917 µM: TGI (RXF 393 renal)
23.7 µM: TGI (UACC-257 melanoma)
8.07 µM: TGI (LOX IMVI melanoma)
1.84 µM: TGI (M14 melanoma)
3.48 µM: TGI (UACC-62 melanoma)
2.16 µM: TGI (HT29 colon)
0.647 µM: TGI (OVCAR-3 ovarian)
11.3 µM: TGI (UO-31 renal)

O=C(Nc1cccc(Cl)c1)Nc1cc2ncncc2cc1OCc1cccc(F)c1
4.34 µM: TGI (MDA-MB-435)
3.98 µM: TGI (SNB-75 CNS)
7.98 µM: TGI (OVCAR-8 ovarian) | TGI (TK-10 renal)
inactive: GI50 (786-0 renal) 3 µM | GI50 (A498 renal) 1.75 µM | GI50 (BT-549 breast) 2.34 µM | GI50 (CAKI-1 renal) 3.03 µM | GI50 (DU-145 prostate) 3.38 µM | GI50 (HCC-2998 colon) 3.9 µM | GI50 (HCT-116 colon) 2.61 µM | GI50 (HCT-15 colon) 2.72 µM | GI50 (HOP-62 NSCLC) 2.1 µM | GI50 (HOP-92 NSCLC) 1.88 µM | GI50 (HS 578T breast) 2.62 µM | GI50 (K-562 leukemia) 2.52 µM | GI50 (MDA-MB-231 breast) 2.54 µM | GI50 (MDA-MB-435) 1.48 µM | GI50 (NCI-H226 lung) 2.91 µM | GI50 (NCI/ADR-RES ovarian) 2.97 µM | GI50 (OVCAR-4 ovarian) 2.56 µM | GI50 (OVCAR-5 ovarian) 2.72 µM | GI50 (OVCAR-8 ovarian) 2.76 µM | GI50 (SK-OV-3 ovarian) 2.45 µM | GI50 (SNB-19 CNS) 2.91 µM | GI50 (SNB-75 CNS) 1.81 µM | GI50 (T-47D breast) 1.75 µM | GI50 (TK-10 renal) 2.63 µM | GI50 (U251 CNS) 3.28 µM
9.19 µM: TGI (NCI-H226 lung)
7.35 µM: TGI (OVCAR-4 ovarian)
5.6 µM: TGI (HOP-62 NSCLC)
7.71 µM: TGI (NCI/ADR-RES ovarian)
7.02 µM: TGI (HS 578T breast)
6.13 µM: TGI (SK-OV-3 ovarian)
7.8 µM: TGI (MDA-MB-231 breast)
4.37 µM: TGI (T-47D breast)
6.88 µM: TGI (HOP-92 NSCLC)
5.96 µM: TGI (A498 renal)
> 100 µM: TGI (786-0 renal) | TGI (CAKI-1 renal) | TGI (DU-145 prostate) | TGI (HCC-2998 colon) | TGI (HCT-116 colon) | TGI (HCT-15 colon) | TGI (K-562 leukemia) | TGI (OVCAR-5 ovarian) | TGI (U251 CNS)
74.2 µM: TGI (SNB-19 CNS)
7.41 µM: TGI (BT-549 breast)
